Measurements from patent US8044054B2, “Stereoisomerically enriched 3-aminocarbonyl bicycloheptene pyrimidinediamine compounds and their uses” (Rigel Pharmaceuticals, Inc., priority 2004, dated 2011).
Where a name gives a salt, the structure may show the parent alone. Read-outs that look alike come from different tables or passages of the source. Each block holds one compound with its values, some of them ahead of it.

How the values were obtained:
A549 (lung carcinoma) = assay: In vitro antiproliferation assay, A549; assay type: cell-based
U2OS (bone osteosarcoma) = assay: In vitro antiproliferation assay, U2OS; assay type: cell-based; conditions: U20S
[1] = test system: THP-1 (monocyte acute monocytic leukemia); assay: In vitro antiproliferation assay, THP-1; assay type: cell-based
[2] = test system: K562 (bone marrow chronic myelogenous leukemia); assay: In vitro antiproliferation assay, K562; assay type: cell-based
H7299 = assay: In vitro antiproliferation assay, H7299; assay type: cell-based
[3] = test system: DU145 (prostate carcinoma); assay: In vitro antiproliferation assay, DU145; assay type: cell-based
[4] = test system: SW620 (colorectal adenocarcinoma); assay: In vitro antiproliferation assay, SW620; assay type: cell-based
[5] = test system: L1210 (mouse lymphocytic leukemia); assay: In vitro antiproliferation assay, L1210; assay type: cell-based
[6] = test system: PC3 (prostate adenocarcinoma); assay: In vitro antiproliferation assay, PC3; assay type: cell-based
[7] = test system: ASPC-1 (pancreatic adenocarcinoma); assay: In vitro antiproliferation assay, ASPC-1; assay type: cell-based; conditions: ASPC1
[8] = test system: H1299 (non-small cell lung carcinoma); assay: In vitro antiproliferation assay, H1299; assay type: cell-based
[9] = test system: SU86.86 (pancreatic carcinoma); assay: In vitro antiproliferation assay, SU86.86; assay type: cell-based; conditions: Homo sapiens, SU.86.86
[10] = test system: SK-OV-3 (ovarian adenocarcinoma); assay: In vitro antiproliferation assay, SK-OV-3; assay type: cell-based; conditions: Homo sapiens, SKOV3
[11] = Pharmacokinetics in monkeys, plasma concentration over time; assay type: in vivo
Method: Compound 60a was administered to monkeys intravenously (1 mg/kg in saline) and orally (5 mg/kg in saline) and the plasma concentrations monitored over time.

[12] = test system: variety of different tumor cell lines; assay: In vitro antiproliferation assays, summary over the tumor cell lines tested; assay type: cell-based; conditions: for IC50's against tumor cell lines, tested as isolated stereoisomers: general range over the cell lines
Description: The cis racemate of structural formula (IIa) can be referred to as the 2-exo-3-exo racemate, and includes the (1R,2R,3S,4S) and (1S,2S,3R,4R) diastereomers of structural formulae (Ia) and (Ib), respectively. The cis racemate of structural formula (IIb) can be referred to as the 2-endo-3-endo racemate, and includes the (1R,2S,3R,4S) and (1S,2R,3S,4R) diastereomers of structural formulae (Ic) and (Id), respectively. […] Moreover, it has been discovered that the (1R,2R,3S,4S) diastereomer of racemate r1 is largely responsible for the potency of the racemate r1.

[13] = test system: H460 (large cell lung carcinoma); conditions: read-out: In Vitro IC50
Method: Compounds 60r1, 60r2, 60r1.2HCl, 60a, 60b and 60a.HCl were tested against a variety of different types of tumor cells for their ability to inhibit proliferation using standard in vitro antiproliferation assays.

Colo205 tumors = test system: Colo205 tumors
Method: (§1) Compound 60a.2HCl, was tested for its ability to shrink A549 and Colo205 tumors in a standard xenograft therapeutic model in SCID mice, and Colo205 and MiaPaCa tumors in a standard xenograph regression model in SCID mice. When palpable tumors appeared and were of a preselected volume (approx. 100 mm3 for treatment model; >300 mm3 for regression model), the mice were administered test compounds in the amounts and according to the dosing regimens specified in TABLE 3 (treatment protocol) and TABLE 4 (regression protocol), below.

MiaPaCa tumors = conditions: regression model, 10 mg/kg/day daily (3 cycles), oral or i.p.
Method: as §1

A549 tumors = conditions: A549, treatment model, 5 days on/2 days off, 10 mg/kg qd, p>0.05
Method: as §1

Aurora kinase-B = target: T1, Aurora kinase-B (Homo sapiens, UniProt Q96GD4); assay: Functional cellular assay of Aurora kinase-B, phosphorylation of histone H3 in A549 cells; assay type: cell-based
T1 construct: endogenous in cells; host or cells: A549 cells
T1 sequence (Q96GD4 whole entry): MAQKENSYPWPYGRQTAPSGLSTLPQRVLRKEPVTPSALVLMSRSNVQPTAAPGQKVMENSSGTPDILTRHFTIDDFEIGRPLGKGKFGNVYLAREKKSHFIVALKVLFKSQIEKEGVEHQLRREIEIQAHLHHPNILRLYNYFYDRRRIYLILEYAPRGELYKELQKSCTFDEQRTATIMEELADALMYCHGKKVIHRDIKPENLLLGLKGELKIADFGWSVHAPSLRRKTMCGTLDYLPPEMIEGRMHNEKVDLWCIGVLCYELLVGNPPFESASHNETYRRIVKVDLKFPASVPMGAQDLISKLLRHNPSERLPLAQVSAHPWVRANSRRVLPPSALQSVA
Method: Compounds 60a and 60b were tested for their ability to inhibit Aurora kinase-B in a functional cellular assay involving phosphorylation of its substrate, histone H3. For the assay, A549 cells were seeded into the wells of a microtiter tray (5000 cells/well in 100 μl F12K media) late in the afternoon on Day 1. The cells were grown overnight (37° C., 5% CO2). On Day 2, 50 μl nocodazole (1 μM in media) was added to each well, giving a final concentration of 333 nM. Cells were grown for an additional 18 hrs under the same conditions.
On Day 3, 50 μl aliguots of varying concentrations of test compound were added to the wells. […] The cells were then stained with a secondary antibody labeled with a fluorescent dye (secondary antibody donkey anti-mouse AlexFluor 488 (Invitrogen Molecular Probes; 1:2000) and DAPI (1:15,000 of 1 mg/ml stock) for 1 hr at room temperature, washed three times with DPBS (200 μl/well) and stored under DPBS (100 μl/well) at 4° C. until ready for analysis.
A Zeiss Axiovert S100 inverted fluorescent microscope with a Plan-NEOFLUAR 10× objective, a Hamamatsu Lightningcure 200 Mercury-Xenon light source and an Omega Optical XF57 quad filter was used for all data collection. […] Images were captured and analyzed in 12-bit format using segmentation and morphological routines contained in the Image Pro software package. […]

SMILES: Cc1cc(Nc2ncc(F)c(NC3C4C=CC(C4)C3C(N)=O)n2)ccc1N1CCN(C)CC1 (racemic) [Compound 60r1, 2-exo-3-exo racemic N4-(3-aminocarbonylbicyclo[2.2.1]hept-5-ene-2-yl)-5-fluoro-N2-[3-methyl-4-(4-methylpiperazin-1-yl)phenyl]-2,4-pyrimidinediamine]
IC50 (A549 (lung carcinoma)): 10 to 20 nM
IC50 (U2OS (bone osteosarcoma)): 10 to 20 nM
IC50 [1]: 20 to 1000 nM
IC50 [2]: 20 to 1000 nM
IC50 (H7299): 10 to 20 nM
IC50 [3]: 10 to 20 nM
IC50 [4]: 20 to 1000 nM
IC50 [5]: 20 to 1000 nM
IC50 [6]: 10 to 20 nM
IC50 [7]: 10 to 20 nM

SMILES: Cc1cc(Nc2ncc(F)c(NC3C4C=CC(C4)C3C(N)=O)n2)ccc1N1CCN(C)CC1 (racemic) [Compound 60r1.2HCl, 2-exo-3-exo racemic N4-(3-aminocarbonylbicyclo[2.2.1.]hept-5-ene-2-yl)-5-fluoro-N2-[3-methyl-4-(4-methylpiperazin-1-yl)phenyl]-2,4-pyrimidinediamine bis hydrogen chloride salt]
IC50 (A549 (lung carcinoma); listed as 60r1-2HCl): 20 to 1000 nM
IC50 [8]: 20 to 1000 nM
IC50 (H7299; listed as 60r1-2HCl): 20 to 1000 nM

IC50 ([1]; Homo sapiens): 20 to 1000 nM
IC50 ([2]; Homo sapiens): 20 to 1000 nM
IC50 (H7299): 10 to 20 nM
IC50 [9]: 10 to 20 nM
IC50 ([3]; Homo sapiens, DU-145): 10 to 20 nM
IC50 [10]: 10 to 20 nM
IC50 ([4]; Homo sapiens, SW-620): 10 to 20 nM
time plasma concentration remained above the IC50 of 7 nM ([11]; intravenously, 1 mg/kg in saline): 11 h
time plasma concentration was maintained above the IC50 ([11]; orally, 5 mg/kg in saline): over 20 hrs
IC50 ([5]; Mus musculus): 10 to 20 nM
IC50's against tumor cell lines, tested as isolated stereoisomers [12]: nanomolar range
SMILES: Cc1cc(Nc2ncc(F)c(N[C@H]3[C@@H](C(N)=O)[C@@H]4C=C[C@H]3C4)n2)ccc1N1CCN(C)CC1 [Compound 60a, (1R,2R,3S,4S)—N-4-(3-aminocarbonylbicyclo[2.2.1]hept-5-ene-2-yl)-5-fluoro-N2-[3-methyl-4-(4-methylpiperazin-1-yl)phenyl]-2,4-pyrimidinediamine]
potency relative to the (1S,2S,3R,4R) enantiomer ([12]; in general, same cell lines): ~1000 fold

SMILES: Cc1cc(Nc2ncc(F)c(N[C@H]3[C@@H](C(N)=O)[C@@H]4C=C[C@H]3C4)n2)ccc1N1CCN(C)CC1.Cl.Cl [Compound 60a.2HCl, (1R,2R,3S,4S)—N-4-(3-aminocarbonylbicyclo[2.2.1]hept-5-ene-2-yl)-5-fluoro-N2-[3-methyl-4-(4-methylpiperazin-1-yl)phenyl]-2,4-pyrimidinediamine bis hydrogen chloride salt]
IC50 [13]: < 10 nM
IC50 (A549 (lung carcinoma)): < 10 nM
tumor growth rate (Colo205 tumors; Colo205, regression model, 10 mg/kg/day oral daily (13 days)): Significant reductions in tumor growth rate
tumor growth rate compared to vehicle control (Colo205 tumors; Colo205, treatment model, daily and pulsed dosing regimens, all dosage levels tested (2 and 10 mg/kg/day oral)): significant (p<0.050) reductions in tumor growth rate
tumor growth rate (MiaPaCa tumors): Significant reductions in tumor growth rate
reduction in mean tumor volume (A549 tumors): ~40%
IC50 [8]: 20 to 1000 nM
IC50 (H7299): 20 to 1000 nM
IC50 [3]: 20 to 1000 nM

IC50 of 60b relative to its enantiomer 60a (Aurora kinase-B): approx. 350 times greater
IC50 (U2OS (bone osteosarcoma)): 20 to 1000 nM
IC50 [1]: 20 to 1000 nM
IC50 [3]: 20 to 1000 nM
IC50's against tumor cell lines, tested as isolated stereoisomers [12]: micromolar range
SMILES: Cc1cc(Nc2ncc(F)c(N[C@@H]3[C@H](C(N)=O)[C@H]4C=C[C@@H]3C4)n2)ccc1N1CCN(C)CC1 [Compound 60b, (1S,2S,3R,4R)—N-4-(3-Aminocarbonylbicyclo[2.2.1]hept-5-en-2-yl)-5-fluoro-N2-[3-methyl-(4-methylpiperazin-1-yl)phenyl]-2,4-pyrimidinediamine]
